Tests used:
Type in all cases: cell-based
[1] = target: proteins of HEK293T cells transiently overexpressing caspase-6 (Homo sapiens, UniProt O43707); settings: protein ACTN4 (O43707)
[2] = target: T1, proteins of HEK293T cells transiently overexpressing caspase-6 (Homo sapiens, UniProt P00390)
T1 sequence (P00390 44-522): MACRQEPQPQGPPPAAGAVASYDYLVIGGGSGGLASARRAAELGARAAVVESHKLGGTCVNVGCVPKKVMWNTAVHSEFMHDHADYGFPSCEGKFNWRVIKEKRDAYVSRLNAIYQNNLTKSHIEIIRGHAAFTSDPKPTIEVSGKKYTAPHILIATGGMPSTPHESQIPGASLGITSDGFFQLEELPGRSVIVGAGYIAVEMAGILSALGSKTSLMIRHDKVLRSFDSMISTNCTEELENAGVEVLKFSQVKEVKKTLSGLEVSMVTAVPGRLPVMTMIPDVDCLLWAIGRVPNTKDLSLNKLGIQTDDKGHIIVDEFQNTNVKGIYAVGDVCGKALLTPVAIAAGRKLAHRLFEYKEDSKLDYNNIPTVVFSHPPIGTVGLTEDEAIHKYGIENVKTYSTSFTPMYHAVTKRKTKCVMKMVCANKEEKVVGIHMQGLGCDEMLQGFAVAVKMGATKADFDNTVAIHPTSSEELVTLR

[3] = target: proteins of HEK293T cells transiently overexpressing caspase-6 (Homo sapiens, UniProt P13645); settings: Probe; protein KRT10 P13645
Chain of proteins of HEK293T cells transiently overexpressing caspase-6 (Homo sapiens, UniProt P13645) (P13645 whole entry): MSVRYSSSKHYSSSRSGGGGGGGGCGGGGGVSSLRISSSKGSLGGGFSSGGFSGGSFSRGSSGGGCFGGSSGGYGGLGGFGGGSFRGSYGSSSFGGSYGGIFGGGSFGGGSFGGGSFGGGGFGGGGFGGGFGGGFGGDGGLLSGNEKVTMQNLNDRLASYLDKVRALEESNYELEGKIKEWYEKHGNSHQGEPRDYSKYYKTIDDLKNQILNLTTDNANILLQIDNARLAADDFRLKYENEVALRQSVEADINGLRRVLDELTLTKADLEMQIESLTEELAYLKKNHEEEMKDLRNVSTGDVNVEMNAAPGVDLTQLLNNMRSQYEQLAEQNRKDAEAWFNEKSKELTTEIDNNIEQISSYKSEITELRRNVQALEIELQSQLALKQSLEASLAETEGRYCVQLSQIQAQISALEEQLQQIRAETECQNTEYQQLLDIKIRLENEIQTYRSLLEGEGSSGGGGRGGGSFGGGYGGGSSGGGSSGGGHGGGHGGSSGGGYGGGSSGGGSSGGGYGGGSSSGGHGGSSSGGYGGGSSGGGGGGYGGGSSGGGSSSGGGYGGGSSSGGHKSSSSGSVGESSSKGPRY

[4] = target: T2, proteins of HEK293T cells transiently overexpressing caspase-6 (Homo sapiens, UniProt P30084); settings: exp_ref Probe; protein ECHS1 (P30084); analysis C6
T2 sequence (P30084 28-290): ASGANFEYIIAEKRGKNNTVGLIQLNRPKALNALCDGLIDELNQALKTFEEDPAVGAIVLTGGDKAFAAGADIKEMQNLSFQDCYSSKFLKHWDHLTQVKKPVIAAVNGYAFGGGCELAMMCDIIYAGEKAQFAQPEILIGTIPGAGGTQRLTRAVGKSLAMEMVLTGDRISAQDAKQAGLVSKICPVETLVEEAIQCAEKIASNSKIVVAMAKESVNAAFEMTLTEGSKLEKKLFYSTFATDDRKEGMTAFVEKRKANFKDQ

[5] = target: proteins of HEK293T cells transiently overexpressing caspase-6 (Homo sapiens, UniProt P38606); settings: exp_ref Probe; protein ATP6V1A (P38606); analysis C6
Chain of proteins of HEK293T cells transiently overexpressing caspase-6 (Homo sapiens, UniProt P38606) (P38606 whole entry): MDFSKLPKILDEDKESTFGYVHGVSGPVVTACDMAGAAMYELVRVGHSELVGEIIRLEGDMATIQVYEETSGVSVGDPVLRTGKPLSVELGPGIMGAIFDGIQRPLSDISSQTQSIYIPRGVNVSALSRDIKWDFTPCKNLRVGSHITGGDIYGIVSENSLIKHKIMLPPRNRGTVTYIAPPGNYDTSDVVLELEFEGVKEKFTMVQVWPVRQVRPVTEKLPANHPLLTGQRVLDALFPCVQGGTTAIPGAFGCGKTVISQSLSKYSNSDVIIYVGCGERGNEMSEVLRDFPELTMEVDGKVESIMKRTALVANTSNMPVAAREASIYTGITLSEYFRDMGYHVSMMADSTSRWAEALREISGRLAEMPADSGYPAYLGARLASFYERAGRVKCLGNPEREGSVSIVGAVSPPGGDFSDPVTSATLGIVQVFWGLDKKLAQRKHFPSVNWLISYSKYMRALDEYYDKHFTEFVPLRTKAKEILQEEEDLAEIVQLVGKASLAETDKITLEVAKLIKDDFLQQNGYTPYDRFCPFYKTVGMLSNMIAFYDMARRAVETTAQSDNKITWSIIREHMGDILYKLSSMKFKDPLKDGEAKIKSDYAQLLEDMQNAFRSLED

[6] = target: proteins of HEK293T cells transiently overexpressing caspase-6 (Homo sapiens, UniProt P63261); settings: exp_ref Probe; protein ACTG1 (P63261); analysis C6
[7] = target: proteins of HEK293T cells transiently overexpressing caspase-6 (Homo sapiens, UniProt Q04637); settings: protein EIF4G1 (Q04637)
Chain of proteins of HEK293T cells transiently overexpressing caspase-6 (Homo sapiens, UniProt Q04637) (Q04637 whole entry): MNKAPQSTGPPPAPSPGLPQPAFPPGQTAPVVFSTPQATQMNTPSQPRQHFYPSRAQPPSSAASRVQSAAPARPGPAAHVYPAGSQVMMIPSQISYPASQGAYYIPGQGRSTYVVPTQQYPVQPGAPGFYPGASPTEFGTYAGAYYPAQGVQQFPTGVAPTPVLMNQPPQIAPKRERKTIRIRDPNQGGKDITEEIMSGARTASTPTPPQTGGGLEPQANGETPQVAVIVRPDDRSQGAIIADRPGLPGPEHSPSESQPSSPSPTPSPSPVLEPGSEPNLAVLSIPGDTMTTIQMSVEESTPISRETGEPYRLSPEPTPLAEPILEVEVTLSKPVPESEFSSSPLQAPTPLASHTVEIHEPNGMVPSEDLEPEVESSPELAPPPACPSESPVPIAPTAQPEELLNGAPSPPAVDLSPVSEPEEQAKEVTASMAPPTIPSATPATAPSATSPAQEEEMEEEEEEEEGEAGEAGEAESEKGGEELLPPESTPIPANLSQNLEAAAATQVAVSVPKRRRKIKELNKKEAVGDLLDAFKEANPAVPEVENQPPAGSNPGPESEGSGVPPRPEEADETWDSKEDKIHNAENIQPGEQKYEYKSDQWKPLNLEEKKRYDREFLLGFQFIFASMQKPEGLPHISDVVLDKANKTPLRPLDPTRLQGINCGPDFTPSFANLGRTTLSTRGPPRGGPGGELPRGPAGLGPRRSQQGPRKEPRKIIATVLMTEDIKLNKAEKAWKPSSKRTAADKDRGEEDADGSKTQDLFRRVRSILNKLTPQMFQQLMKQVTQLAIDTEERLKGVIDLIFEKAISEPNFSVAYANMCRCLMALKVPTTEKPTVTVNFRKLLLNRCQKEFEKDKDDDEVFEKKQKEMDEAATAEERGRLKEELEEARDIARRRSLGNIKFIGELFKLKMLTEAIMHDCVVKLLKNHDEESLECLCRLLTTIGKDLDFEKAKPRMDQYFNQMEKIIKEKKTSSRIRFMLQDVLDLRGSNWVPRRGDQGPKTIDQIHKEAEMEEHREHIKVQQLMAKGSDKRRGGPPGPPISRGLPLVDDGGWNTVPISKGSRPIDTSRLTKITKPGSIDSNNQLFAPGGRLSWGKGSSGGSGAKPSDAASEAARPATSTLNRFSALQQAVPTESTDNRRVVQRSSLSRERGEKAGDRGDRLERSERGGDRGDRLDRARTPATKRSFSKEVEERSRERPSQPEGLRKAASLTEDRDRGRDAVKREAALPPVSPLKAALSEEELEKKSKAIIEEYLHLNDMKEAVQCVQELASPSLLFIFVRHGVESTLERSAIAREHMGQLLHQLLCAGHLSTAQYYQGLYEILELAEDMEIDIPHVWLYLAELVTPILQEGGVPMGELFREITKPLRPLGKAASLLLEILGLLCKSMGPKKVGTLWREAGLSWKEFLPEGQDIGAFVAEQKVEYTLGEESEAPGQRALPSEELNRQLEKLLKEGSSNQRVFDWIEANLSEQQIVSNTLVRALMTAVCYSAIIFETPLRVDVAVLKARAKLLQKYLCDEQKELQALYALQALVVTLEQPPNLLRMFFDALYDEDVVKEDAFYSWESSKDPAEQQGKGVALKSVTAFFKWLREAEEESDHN

[8] = target: proteins of HEK293T cells transiently overexpressing caspase-6 (Homo sapiens, UniProt Q99873); settings: exp_ref Probe; protein PRMT1 (Q99873); analysis C6
Chain of proteins of HEK293T cells transiently overexpressing caspase-6 (Homo sapiens, UniProt Q99873) (Q99873 whole entry): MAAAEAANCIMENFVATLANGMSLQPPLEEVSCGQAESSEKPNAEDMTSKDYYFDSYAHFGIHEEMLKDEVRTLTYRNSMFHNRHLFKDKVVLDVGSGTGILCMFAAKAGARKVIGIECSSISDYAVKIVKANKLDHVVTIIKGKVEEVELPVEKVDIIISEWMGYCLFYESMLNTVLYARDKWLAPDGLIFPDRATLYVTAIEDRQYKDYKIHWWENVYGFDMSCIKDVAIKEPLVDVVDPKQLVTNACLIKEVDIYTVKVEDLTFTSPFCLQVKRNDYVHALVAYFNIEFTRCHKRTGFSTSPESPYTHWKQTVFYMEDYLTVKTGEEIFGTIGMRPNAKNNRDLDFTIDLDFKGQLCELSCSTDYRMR

[9] = target: T3, proteins of HEK293T cells transiently overexpressing caspase-6 (Homo sapiens, UniProt Q9NQC3); settings: protein RTN4 (Q9NQC3), analysis C6
T3 sequence (Q9NQC3 1-1192): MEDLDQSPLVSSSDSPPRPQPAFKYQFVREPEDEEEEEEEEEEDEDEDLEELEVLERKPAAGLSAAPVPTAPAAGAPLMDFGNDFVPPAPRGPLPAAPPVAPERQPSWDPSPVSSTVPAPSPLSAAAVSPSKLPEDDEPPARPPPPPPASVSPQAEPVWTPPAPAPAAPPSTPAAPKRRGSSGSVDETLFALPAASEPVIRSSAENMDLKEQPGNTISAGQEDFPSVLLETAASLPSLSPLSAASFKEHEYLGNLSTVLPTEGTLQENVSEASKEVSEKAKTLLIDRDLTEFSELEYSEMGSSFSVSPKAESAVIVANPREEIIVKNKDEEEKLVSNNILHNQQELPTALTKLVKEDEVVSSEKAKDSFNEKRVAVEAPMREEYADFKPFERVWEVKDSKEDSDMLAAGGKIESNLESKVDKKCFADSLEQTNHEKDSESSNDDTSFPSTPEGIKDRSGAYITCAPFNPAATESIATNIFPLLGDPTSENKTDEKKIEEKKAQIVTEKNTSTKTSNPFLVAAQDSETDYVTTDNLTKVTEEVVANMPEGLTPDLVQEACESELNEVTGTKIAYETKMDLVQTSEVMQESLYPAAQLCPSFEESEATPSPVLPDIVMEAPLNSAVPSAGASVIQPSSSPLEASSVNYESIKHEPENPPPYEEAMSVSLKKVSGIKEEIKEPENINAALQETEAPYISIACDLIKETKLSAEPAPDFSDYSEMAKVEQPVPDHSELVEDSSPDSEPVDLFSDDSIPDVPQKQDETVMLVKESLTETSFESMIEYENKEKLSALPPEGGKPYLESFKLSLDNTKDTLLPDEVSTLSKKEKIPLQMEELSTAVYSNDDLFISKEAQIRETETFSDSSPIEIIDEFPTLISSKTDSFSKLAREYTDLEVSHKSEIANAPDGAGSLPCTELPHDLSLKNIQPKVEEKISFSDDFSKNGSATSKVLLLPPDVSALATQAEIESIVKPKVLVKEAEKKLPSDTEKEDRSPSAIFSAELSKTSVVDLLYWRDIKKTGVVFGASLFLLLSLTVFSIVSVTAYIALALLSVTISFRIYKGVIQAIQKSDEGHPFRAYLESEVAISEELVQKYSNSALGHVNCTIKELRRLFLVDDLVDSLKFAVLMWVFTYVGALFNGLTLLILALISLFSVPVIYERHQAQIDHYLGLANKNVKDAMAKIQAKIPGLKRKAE

[10] = system: proteins of HEK293T cells transiently overexpressing caspase-6; settings: exp_ref Probe; protein CBSL (P0DN79); analysis C6

Chain of proteins of HEK293T cells transiently overexpressing caspase-6 (Homo sapiens, UniProt O43707) (O43707 whole entry): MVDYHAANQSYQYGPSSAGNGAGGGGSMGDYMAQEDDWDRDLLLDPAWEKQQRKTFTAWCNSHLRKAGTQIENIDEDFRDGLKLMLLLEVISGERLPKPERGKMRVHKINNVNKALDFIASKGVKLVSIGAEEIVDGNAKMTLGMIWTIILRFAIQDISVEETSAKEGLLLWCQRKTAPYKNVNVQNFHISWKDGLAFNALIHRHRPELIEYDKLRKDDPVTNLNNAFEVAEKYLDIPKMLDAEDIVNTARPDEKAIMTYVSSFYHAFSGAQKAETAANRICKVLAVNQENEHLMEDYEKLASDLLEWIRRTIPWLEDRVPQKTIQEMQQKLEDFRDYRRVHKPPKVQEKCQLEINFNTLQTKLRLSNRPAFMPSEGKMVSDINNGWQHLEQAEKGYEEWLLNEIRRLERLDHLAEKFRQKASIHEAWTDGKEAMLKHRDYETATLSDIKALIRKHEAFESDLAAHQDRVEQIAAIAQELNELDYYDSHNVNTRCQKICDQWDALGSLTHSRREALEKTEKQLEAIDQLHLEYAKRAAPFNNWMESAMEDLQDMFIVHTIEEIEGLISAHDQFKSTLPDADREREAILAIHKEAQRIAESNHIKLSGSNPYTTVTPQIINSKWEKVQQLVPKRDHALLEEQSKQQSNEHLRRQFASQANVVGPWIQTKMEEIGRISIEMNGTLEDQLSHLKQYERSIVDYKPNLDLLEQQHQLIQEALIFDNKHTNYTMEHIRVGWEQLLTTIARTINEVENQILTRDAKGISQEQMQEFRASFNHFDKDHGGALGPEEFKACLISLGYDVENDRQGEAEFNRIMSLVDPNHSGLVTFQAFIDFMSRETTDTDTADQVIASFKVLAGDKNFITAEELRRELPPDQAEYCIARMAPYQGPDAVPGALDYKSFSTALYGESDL

C#CCOc1ccc([C@@H]2C[C@@H](C(=O)Nc3ccc(OC(F)(F)F)cc3)CN(S(=O)(=O)C=C)C2)cc1 (relative stereo) [13-t]
enrich.exp.med ([1]; exp_ref Probe, analysis C6): 0.6607
enrich.exp.med.lin [1]: 1.581
enrich.exp.med.log2 [1]: 0.6607
enrich.exp.med ([2]; Probe, protein GSR P00390): -1.323
enrich.exp.med.lin ([2]; protein GSR (P00390)): 0.3998
enrich.exp.med.log2 ([2]; protein GSR (P00390)): -1.323
enrich.exp.med [3]: -7.844
enrich.exp.med [4]: 0.4283
enrich.exp.med [5]: 0.7344
enrich.exp.med [6]: 0.6252
enrich.exp.med ([7]; exp_ref Probe, analysis C6): 0.9115
enrich.exp.med.lin [7]: 1.881
enrich.exp.med.log2 [7]: 0.9115
enrich.exp.med [8]: -0.1105
enrich.exp.med.lin ([9]; Expt Probe): 6.436
enrich.exp.med.log2 ([9]; Expt Probe): 2.686
enrich.exp.med ([9]; exp_ref Probe): 2.686
enrich.exp.med [10]: -0.1387

— article PMC10176470, “Engaging a Non-catalytic Cysteine Residue Drives Potent and Selective Inhibition of Caspase-6” (Journal of the American Chemical Society, 2023)
